From ChEMBL document CHEMBL5154886, “Novel Capsid Inhibitors for Treating HIV Infection” (ACS Med Chem Lett, 2022) come the findings set out here.

In general, EC50 refers to the concentration at which the effect is half-maximal.

This test relates to Human immunodeficiency virus 1. Nature of the test: Antiviral activity against HIV-1 IIIB infected in human MT4 cells assessed as inhibition of viral replication measured after 5 days by Celltiter-Glo assay. To be noted: Human immunodeficiency virus 1, IIIB, MT4, 120 h. Format: functional, organism-based. For orientation: Cellular ATP, detected with luciferase, serves as a proxy for viable cell number.
With `Cc1nc2nc([C@H](Cc3cc(F)cc(F)c3)NC(=O)Cn3nc(C(F)(F)F)c4c3C(F)(F)[C@@H]3C[C@H]43)c(-c3ccc(Cl)c4c(NS(C)(=O)=O)nn(C)c34)cc2[nH]1`, the EC50 is 2.4 nM.

`COCc1nc2nc([C@H](Cc3cc(F)cc(F)c3)NC(=O)Cn3nc(C(F)F)c4c3C(F)(F)[C@@H]3C[C@H]43)c(-c3ccc(Cl)c4c(NS(C)(=O)=O)nn(C)c34)cc2[nH]1`: the EC50 was determined as 1.5 nM.

Take `COCc1nc2nc([C@H](Cc3cc(F)cc(F)c3)NC(=O)Cn3nc(C(F)(F)F)c4c3C(F)(F)[C@@H]3C[C@H]43)c(-c3ccc(Cl)c4c(NS(C)(=O)=O)nn(C)c34)cc2[nH]1`: the EC50 amounted to 2.1 nM.

For the compound `Cc1nc2nc([C@H](Cc3cc(F)cc(F)c3)NC(=O)Cn3nc(C(F)F)c4c3C(F)(F)[C@@H]3C[C@H]43)c(-c3ccc(Cl)c4c(NS(C)(=O)=O)nn(C)c34)cc2[nH]1`, the EC50 was determined as 1.6 nM.

Take `Cn1nc(N)c2cccc(-c3cc4sc(N5CC(C)(O)C5)nc4nc3[C@H](Cc3cc(F)cc(F)c3)NC(=O)Cn3nc(C(F)F)c4c3C3CC3CC4)c21` (stereo partly specified): the half-maximal effective concentration (EC50) is 1.3 nM.

Take `Cn1cc(-c2nc3nc([C@H](Cc4cc(F)cc(F)c4)NC(=O)Cn4nc(C(F)F)c5c4C(F)(F)[C@@H]4C[C@H]54)c(-c4ccc(Cl)c5c(NS(C)(=O)=O)nn(C)c45)cc3[nH]2)cn1`: the EC50 is 3 nM.
